Source: US6342519B2, “Oxetanone derivatives” (2 Pro Chemical, priority 1999, dated 2002)

Assays:
human lipase = molecular target: T1, human lipase (Homo sapiens, UniProt P16233); test: Lipase inhibition assay, Lipase #1 solution (Aldrich Lipase PS Standard); type: biochemical; details: Lipase #1 (human lipase), 20 mL of compound stock solution in 0.2 N HCl, Sigma Lipase Substrate, pH about 8, 30 minutes, 35-37° C., titration with 0.025 N NaOH, two runs
T1 construct: purchased Aldrich Product No. 8054
T1 sequence (P16233 17-465): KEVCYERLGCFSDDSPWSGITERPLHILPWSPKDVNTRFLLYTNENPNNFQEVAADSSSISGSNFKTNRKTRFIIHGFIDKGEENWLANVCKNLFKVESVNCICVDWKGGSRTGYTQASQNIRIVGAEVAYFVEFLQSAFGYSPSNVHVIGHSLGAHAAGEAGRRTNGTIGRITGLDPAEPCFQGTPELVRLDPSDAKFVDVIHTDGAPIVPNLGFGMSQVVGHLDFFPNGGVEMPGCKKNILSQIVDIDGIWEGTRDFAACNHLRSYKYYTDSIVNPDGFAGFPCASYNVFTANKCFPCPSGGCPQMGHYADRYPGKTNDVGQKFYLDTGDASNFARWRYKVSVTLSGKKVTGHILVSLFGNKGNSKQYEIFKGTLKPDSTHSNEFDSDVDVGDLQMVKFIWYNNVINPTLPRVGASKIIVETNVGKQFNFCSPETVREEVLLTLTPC
Method: (§1) Lipase inhibition assays were performed essentially as follows using each of Compounds A and B.
(§2) A 1 L stock solution of 1N NaOH was made and a 500 mL stock solution of 0.025 N NaOH was made by diluting a portion of the stock 1N solution. Also a stock solution of 0.2 N HCl was made. A 100 mL TRIZMA solution (from Aldrich Lipase Assay Kit Cat. No. 800B) was diluted with 100 mL of denatured EtOH and 300 mL of water to form a 500 mL TEW solution. Compound A from Example 6 (100 mg) was added to a portion of the 0.2 N HCl stock solution and diluted to a final volume of 300 mL with the same HCl stock solution to form a compound A stock solution. […]
(§3) In a 500 mL beaker equipped with a heat source and a magnetic stirrer was added 100 mL of distilled water, 10 mL of TEW solution, 10 mL of Sigma Lipase Substrate and a 20 mL sample (sample control was 20 mL of the stock 0.2 N HCl solution, sample A was 20 mL of the compound A stock solution, and sample B was 20 mL of the compound B stock solution). The pH was adjusted to about 8 with 1N NaOH using a pH meter, whose reading was noted and recorded as a baseline reading after the pH adjustment. […] The volume of NaOH solution used to return to the baseline pH reading was noted and recorded. […]

[1] = molecular target: T2, Pork Pancreas Lipase [EC 3.1.1.3] (Sus scrofa, UniProt P00591); test: Lipase inhibition assay, Lipase #2 solution (Aldrich Pork Pancreas Lipase); type: biochemical; details: Lipase #2 (pork pancreas lipase), 20 mL of compound stock solution in 0.2 N HCl, Sigma Lipase Substrate, pH about 8, 30 minutes, 35-37° C., titration with 0.025 N NaOH, two runs
T2 construct: purchased Aldrich Product No. 32313; host or cells: pork pancreas
T2 sequence (P00591 1-450): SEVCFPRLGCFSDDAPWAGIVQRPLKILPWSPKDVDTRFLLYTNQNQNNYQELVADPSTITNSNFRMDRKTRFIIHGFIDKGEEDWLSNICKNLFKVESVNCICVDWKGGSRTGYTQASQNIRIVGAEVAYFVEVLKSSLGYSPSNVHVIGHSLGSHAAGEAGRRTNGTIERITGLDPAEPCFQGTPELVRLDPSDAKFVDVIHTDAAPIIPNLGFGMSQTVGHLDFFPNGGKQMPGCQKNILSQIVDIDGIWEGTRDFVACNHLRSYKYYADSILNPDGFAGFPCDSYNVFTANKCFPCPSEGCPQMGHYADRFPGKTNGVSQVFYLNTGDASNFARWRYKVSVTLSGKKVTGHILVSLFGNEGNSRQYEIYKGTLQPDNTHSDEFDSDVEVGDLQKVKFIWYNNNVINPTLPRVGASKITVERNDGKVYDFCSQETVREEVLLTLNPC
Method: as §1, §2, §3

[2] = Oil binding assay with olive oil and food-coloured water; type: physicochemical; details: for oil binding, observation: olive oil/substance 1.5/1 ratio by weight, then 4 mL of water with food coloring
Method: Oil binding assay were performed using each of Compounds A and B using the procedures essentially as follows.
Six controls were obtained by adding Star Brand Olive Oil (extra virgin light colored olive oil) to 4 or 7 mL sample bottles, which were photographed at a distance of 10 inches by using an IZONE POLAROID camera as follows.
For comparison with Control 4 (oil/chitosan 1.5/1 ratio) each of Compounds A and B were mixed with oil in the same ratio(oil/compound 1.5/1 ratio, green food coloring was added to the aqueous portion of the compound A sample bottle and blue food coloring was added to the aqueous portion of the compound B sample bottle).
For comparison with Control 6 (oil/chitosan 8:1 ratio and 1 mL of aqueous solution with food coloring), compound B was added to 8 times its weight of oil and stirred to a uniform consistency. The 1 mL of water was added and 5 drops of red food coloring were added.

[3] = system: absorption of dietary fat; details: 120 mg dose taken before, or up to one hour after, a fat-containing meal; average person; cited from earlier work

| Compound | percent inhibition with respect to the control (human lipase) | percent inhibition with respect to the control [1] | water absorbed after binding oil ([2]; olive oil/compound 8:1, 1 mL of water) | tightness of oil binding compared with chitosan and compound A ([2]; olive oil/substance 1.5/1 ratio) | oil binding, observation [2] | oil binding and water uptake, observation ([2]; olive oil/substance 8:1 ratio by weight, then 1 mL of water and 5 drops of red food coloring) | share of the fat eaten at a given meal that is not absorbed [3] |
| --- | --- | --- | --- | --- | --- | --- | --- |
| 4-[{(hexanoic acid modified chitosan 6-hexanoyloxy}-2-hexyl-hexadecanoic 1,3-lactone [Compound B] | about 50% | about 50% | at least its weight in water | appeared to perhaps bind the oil more tightly than either chitosan or compound A | oil is bound tightly at the bottom of the bottle and there is substantially no floating oil | uniformly absorbed the 1 mL of aqueous food coloring solution to form a homogenous layer which was present even after 24 hours | – |
| 2S, 3S, 4S [2-{(hexanoic acid modified chitosan 6-hexanoylamido}-4-methylvaleryloxy]-2-hexyl-hexadecanoic 1,3-lactone [Compound A] | about 50% | about 50% | – | – | oil is bound tightly at the bottom of the bottle and there is substantially no floating oil | – | – |
| CCCCCCCCCCC[C@@H](C[C@@H]1OC(=O)[C@H]1CCCCCC)OC(=O)[C@H](CC(C)C)NC=O [Orlistat, (2S,3S,5S)-5-[(S)-2-formamido-4-methyl-valeryloxy]-2-hexyl-3-hydroxy-hexadecanoic 1,3 acid lactone] | – | – | – | – | – | – | up to one-third |
